This is an account of results in patent US6489269B1, “Plant-activating agent” (Kao Corporation, priority 1998, dated 2002).

Each structure is given as a SMILES string.

The assay relates to Chlorella cells. Nature of the assay: Test of reproductive ability using chlorella cells. It counts as cell-based. Particulars: number of chlorella cells after 10 days, relative value, no-treated LS medium = 100; start 1.00x10^5 cells per ml. How it is done: <Test of Reproductive Ability Using Chlorella Cells> Chlorella cells, which are green cells of […], were cultured with vibration in an inorganic-salt medium. Raw materials shown in Table 4 were added thereto, and then reproductive ability of chlorella cells (ability for increasing the number of the cells) was evaluated by comparison with the result obtained from a medium which was no-treated (i.e., only original nutrients of the inorganic salt medium). For the respective compositions, the test was repeated 3 times. The concentration of the cells was set to 1.00×10^5 cells (per ml) at the start of the test. […] As the inorganic salt medium, a Linsmaier-Skoog (LS) medium was used.
For the compound `CCCO` [Comparative product 4-1, Propanol, reference compound], the “proliferating ability of cells” value came out at 96.

As for `CCCCCCO` [Comparative product 4-2, Hexanol, reference compound], the “proliferating ability of cells” value is 93.

Regarding `CCCCCCCCCCO` [Comparative product 4-4, Decyl alcohol, reference compound], the “proliferating ability of cells” value was found to be 91.

As to `CCCCCCCCO` [Comparative product 4-7, Octanol, reference compound], the “proliferating ability of cells” value was 95.

With `CCCCCCCCCCCCO` [Invention product 4-1, Lauryl alcohol], the “proliferating ability of cells” value was 115.

Take `CCCCCCCCCCCCCCO` [Invention product 4-2, Myristyl alcohol]: the “proliferating ability of cells” value is reported as 128.

Consider `CCCCCCCCCCCCCCCCO` [Invention product 4-4, Cetyl alcohol], for which the “proliferating ability of cells” value was determined as 148.

With `CCCCCCCCCCCCCCCCCCO` [Invention product 4-6, Stearyl alcohol], the “proliferating ability of cells” value stood at 168.

Turning to `CCCCCCCC/C=C\CCCCCCCCO` [Invention product 4-7, Oleyl alcohol], the “proliferating ability of cells” value came out at 154.

Turning to `CCCCCCCCCCCCCCCCCCCCO` [Invention product 4-8, Eicosanol], the “proliferating ability of cells” value came to 152.

For `CCCCCCCCCCCCCCCCCCCCCCO` [Invention product 4-9, Docosanol], the “proliferating ability of cells” value amounted to 130.

In the case of `CCCCCCCCCCCCCCCCCCCCCCCCO` [Invention product 4-10, Tetracosanol], the “proliferating ability of cells” value was found to be 122.

In the case of `CCCCCCCCCCCCCCCCO` [Invention product 4-15, Cetyl alcohol], the “proliferating ability of cells” value amounted to 142.

As for `CCCCCCCCCCCCCCCCCCO` [Invention product 4-16, Stearyl alcohol], the “proliferating ability of cells” value is listed as 156.

With `CCCCCCCCCCCCCCCCCCCCO` [Invention product 4-17, Eicosanol], the “proliferating ability of cells” value was 146.
